Values quoted from earlier work as cited in patent publication US6353028B2, “Composition and method for topically treating Peyronie's Disease, Dupuytren's hand contracture, Ledderhose Fibrosis, erectile dysfunction arising from plaque accumulations, and scarring” (priority 1998, dated 2002).

Test system: Peyronie's disease
Conditions: intra-lesional injection

COc1ccc(CCN(C)CCCC(C#N)(c2ccc(OC)c(OC)c2)C(C)C)cc1OC (stereo not shown) [Verapamil]
success of intra-lesional injections in Peyronie's disease: very limited success
